Test results: patent US11299485B2, “Thiophene derivative and use thereof” (FUJIMOTO CO., LTD., priority 2018, dated 2022)

Tests used:
Assay type in all cases: cell-based
MM.1S cells = assay: Human myeloma cell line MM.1S proliferation suppression test; conditions: MM1.S, 72 h, compound 10 μM, 3 days, WST-1 or WST-8, read-out: cell survival rate (% of control) MM.1S
Method: Example 51: Human Myeloma Cell Line MM.1S Proliferation Suppression Test
MM.1S cells (ATCC, CRL-2974) were suspended in 10% fetal calf serum (Thermo Fisher Scientific)-containing RPMI1640 medium (ATCC, hereinafter abbreviated as medium B), and diluted as appropriate with 0.4% trypan blue solution (Sigma-Aldrich Co. LLC.). The number of viable cells was counted with a hemocytometer (ERMA INC.). It was diluted with medium B such that the value obtained was 2×10^5 cells/mL. On the other hand, 50 μL of a solution obtained by diluting 4 mM DMSO solution of the test compound 200-fold with medium B was added to each well of a Falcon 96-well flat bottom plate (Corning Incorporated), and the above-mentioned cell suspension was dispensed at 50 μL/well (final concentration of test compound 10 μM). 50 μL of a solution obtained by diluting DMSO 200-fold with medium B was added to the control well. After culturing at 37° C. in a 5% CO2 stream for 3 days, the cell proliferation activity was measured using WST-1 (DOJINDO LABORATORIES) or WST-8 Kit (KISHIDA CHEMICAL Co., Ltd.) and according to each instruction manual attached thereto.

Pfeiffer cells = assay: Human diffuse large B-cell lymphoma cell line Pfeiffer proliferation suppression test; conditions: 144 h, compound 10 μM, 3 days + re-plating with compound 3 days, WST-8, read-out: cell survival rate (% of control) Pfeiffer
Text: Example 52: Human Diffuse Large B-Cell Lymphoma Cell Line Pfeiffer Proliferation Suppression Test
(§1) Pfeiffer cells (ATCC, CRL-2632) were suspended in medium B, and diluted as appropriate with 0.4% trypan blue solution (Sigma-Aldrich Co. LLC.). The number of viable cells was counted with a hemocytometer (Funakoshi Co., Ltd.). A cell suspension obtained by diluting with medium B such that the value obtained was 1.3×10^5 cells/mL was dispensed into a Falcon 96 well flat bottom plate (Corning Incorporated) at 75 μL/well, and culture was started at 37° C. under 5% CO2 stream. The next day, a solution obtained by diluting 4 mM DMSO solution of the test compound 100-fold with medium B was added by 25 μL to each well (final concentration of test compound 10 μM). 25 μL of a solution obtained by diluting DMSO 100-fold with medium B was added to the control well. After culturing at 37° C. in a 5% CO2 stream for 3 days, the cell culture medium was uniformly suspended with a multi channel pipette, 14 μL per well was transferred into another new Falcon 96 well flat bottom plate. A solution obtained by diluting 4 mM DMSO solution of the same test compound as the first time 400-fold with medium B was added by 86 μL to a total amount of 100 μL (final concentration of test compound 10 μM). After culturing at 37° C. in a 5% CO2 stream for 3 days, the cell proliferation activity was measured according to the instruction manual attached to WST-8 Kit (KISHIDA CHEMICAL Co., Ltd.).

REC-1 cells = assay: Human mantle cell lymphoma cell line REC-1 proliferation suppression test; conditions: Rec1, 72 h, compound 10 μM, 3 days, WST-8, read-out: cell survival rate (% of control) REC-1
Method: Example 53: Human Mantle Cell Lymphoma Cell Line REC-1 Proliferation Suppression Test
as §1, with “REC-1” for “Pfeiffer”, “CRL-3004)” for “CRL-2632)”, “cell” for “cell culture medium was uniformly suspended with a multi channel pipette, 14 μL per well was transferred into another new Falcon 96 well flat bottom plate. A solution obtained by diluting 4 mM DMSO solution of the same test compound as the first time 400-fold with medium B was added by 86 μL to a total amount of 100 μL (final concentration of test compound 10 μM). After culturing at 37° C. in a 5% CO2 stream for 3 days, the cell”

Daudi cells = assay: Human Burkitt lymphoma cell line Daudi proliferation suppression test; conditions: 72 h, compound 10 μM, 3 days, WST-8, read-out: cell survival rate (% of control) Daudi
Text: Example 54: Human Burkitt Lymphoma Cell Line Daudi Proliferation Suppression Test
Daudi cells (National Institutes of Biomedical Innovation, Health and Nutrition (NIBIOHN), JCRB9071) were suspended in medium B, and diluted as appropriate with 0.4% trypan blue solution (Sigma-Aldrich Co. LLC.). The number of viable cells was counted with a hemocytometer (ERMA INC.). A cell suspension obtained by diluting with medium B such that the value obtained was 1.3×10^5 cells/mL was dispensed into a Falcon 96 well flat bottom plate (Corning Incorporated) at 75 μL/well, and culture was started at 37° C. under 5% CO2 stream. The next day, a solution obtained by diluting 4 mM DMSO solution of the test compound 100-fold with medium B was added by 25 μL to each well (final concentration of test compound 10 μM). 25 μL of a solution obtained by diluting DMSO 100-fold with medium B was added to the control well. After culturing at 37° C. in a 5% CO2 stream for 3 days, the cell proliferation activity was measured according to the instruction manual attached to WST-8 Kit (KISHIDA CHEMICAL Co., Ltd.).

Kasumi-7 cells = assay: Human acute lymphoblastic leukemia cell line Kasumi-7 proliferation suppression test; conditions: 72 h, compound 10 μM, 3 days, WST-8, read-out: cell survival rate (% of control) Kasumi-7
Text: Example 55: Human Acute Lymphoblastic Leukemia Cell Line Kasumi-7 Proliferation Suppression Test
Kasumi-7 cells (NIBIOHN, JCRB1401) were suspended in 20% fetal calf serum (Thermo Fisher Scientific, Inc.)-containing RPMI1640 medium (ATCC, hereinafter abbreviated as medium C), and diluted as appropriate with 0.4% trypan blue solution (Sigma-Aldrich Co. LLC.). The number of viable cells was counted with a hemocytometer (Funakoshi Co., Ltd.). A cell suspension obtained by diluting with medium C such that the value obtained was 1.3×10^5 cells/mL was dispensed into a Falcon 96 well flat bottom plate (Corning Incorporated) at 75 μL/well, and culture was started at 37° C. under 5% CO2 stream. The next day, a solution obtained by diluting 4 mM DMSO solution of the test compound 100-fold with medium C was added by 25 μL to each well (final concentration of test compound 10 μM). 25 μL of a solution obtained by diluting DMSO 100-fold with medium C was added to the control well. After culturing at 37° C. in a 5% CO2 stream for 3 days, the cell proliferation activity was measured according to the instruction manual attached to WST-8 Kit (KISHIDA CHEMICAL Co., Ltd.).

## O=C1CCC(N2C(=O)c3ccccc3C2=O)C(=O)N1 (centres unmarked) [Thalidomide, reference compound]
MM.1S cells
  viability at 10 µM: 79%
Pfeiffer cells
  viability at 10 µM: 104%
REC-1 cells
  viability at 10 µM: 94%
Daudi cells
  viability at 10 µM: 81%
Kasumi-7 cells
  viability at 10 µM: 96%
